This note sets out measurements from patent US12187709B2 (Genentech, Inc., priority 2021, dated 2025).

One assay deals with c-Cbl (residues 47-435) (Homo sapiens (Human), UniProt P22681). The experiment in a line: c-Cbl SPR assay. Type of assay: binding. Conditions: 20° C. The essentials:
(§1)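 Binding was measured by SPR and fitted to a 1:1 model from multi-cycle kinetics with double referencing, 6 concentrations in 2-fold dilution. Alternatively, single-cycle titrations up to 500 nM (120 s contact) were fitted with kd fixed from a single-exponential fit of chaser-measured % compound bound versus time.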
For orientation: Surface plasmon resonance follows binding to a sensor surface in real time, without labels.

The target of assay [1] is Human Cbl-b (residues 40-426) (Homo sapiens (Human), UniProt Q13191). The experiment in a line: Cbl-b SPR assay. Conditions: for Fold of selectivity: C-cbl SPR Kd vs Cbl-b SPR Kd; for Kd: SPR, 20° C. Type of assay: binding. The procedure, abridged:
as §1

Another assay addresses Cbl-b (Homo sapiens (Human), UniProt Q13191). Nature of the assay: Cbl-b LCK Ub TR-FRET assay (Cbl-b Lck HTRF). It is filed as biochemical. Conditions: for IC50: Cbl-b LCK Ub TR-FRET; for fold-selectivity (Cbl-b over C-cbl): ratio C-cbl Lck HTRF IC50 / Cbl-b Lck HTRF IC50. The procedure, abridged: (§2)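 Detection reagents added, brief spin, 20 min RT. IC50 fit normalized to no-LCK (low) and DMSO (high) controls.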
(In general: In TR-FRET formats the signal depends on donor and acceptor labels being close together.)

Another assay addresses c-Cbl (Homo sapiens (Human), UniProt P22681). Nature of the assay: C-Cbl LCK Ub TR-FRET assay (C-cbl Lck HTRF). It is filed as biochemical. The essentials: as §2

Chain of c-Cbl (residues 47-435) (P22681 47-435): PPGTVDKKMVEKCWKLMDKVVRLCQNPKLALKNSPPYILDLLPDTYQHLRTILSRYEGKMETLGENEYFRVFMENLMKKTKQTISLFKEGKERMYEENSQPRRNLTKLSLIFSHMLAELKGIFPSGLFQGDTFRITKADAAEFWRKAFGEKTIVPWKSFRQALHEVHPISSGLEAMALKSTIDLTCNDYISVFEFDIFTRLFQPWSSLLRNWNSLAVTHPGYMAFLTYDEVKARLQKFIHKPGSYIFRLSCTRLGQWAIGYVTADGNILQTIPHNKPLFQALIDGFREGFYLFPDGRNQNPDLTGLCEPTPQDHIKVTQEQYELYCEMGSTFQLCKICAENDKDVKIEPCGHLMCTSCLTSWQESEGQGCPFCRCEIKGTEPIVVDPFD
Chain of c-Cbl (P22681 47-435): as above
Chain of Human Cbl-b (residues 40-426) (Q13191 40-426): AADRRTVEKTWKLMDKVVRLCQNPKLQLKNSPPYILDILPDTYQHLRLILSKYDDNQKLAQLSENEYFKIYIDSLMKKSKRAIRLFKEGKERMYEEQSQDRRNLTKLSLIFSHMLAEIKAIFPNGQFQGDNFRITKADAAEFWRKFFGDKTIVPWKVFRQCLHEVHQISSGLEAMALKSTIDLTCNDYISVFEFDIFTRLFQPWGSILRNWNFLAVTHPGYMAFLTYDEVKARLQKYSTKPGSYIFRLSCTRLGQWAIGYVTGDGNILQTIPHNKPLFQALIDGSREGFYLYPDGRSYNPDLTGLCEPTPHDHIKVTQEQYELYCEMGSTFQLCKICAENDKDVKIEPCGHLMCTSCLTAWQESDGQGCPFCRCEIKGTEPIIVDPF
Chain of Cbl-b (Q13191 40-426): as above

By Kd is commonly meant a measure of binding affinity in units of concentration. As usually defined, the IC50 is the concentration at which inhibition is half-maximal. A high value points to lower potency. As for `CO[C@H]1C[C@](c2cc(NC3CCC3)cc(N3Cc4c(cc(CNC5(C)CCC5)cc4C(F)(F)F)C3=O)c2)(c2nncn2C)C1` [Compound 211, 2-(3-(cyclobutylamino)-5-((1r,3r)-3-methoxy-1-(4-methyl-4H-1,2,4-triazol-3-yl)cyclobutyl)phenyl)-6-(((1-methylcyclobutyl)amino)methyl)-4-(trifluoromethyl)isoindolin-1-one], at c-Cbl (residues 47-435), the Kd came to 49 nM. Also, in assay [1], the Fold of selectivity amounted to 14× and the Kd stood at 3.5 nM. Further, at Cbl-b, the IC50 came to 15 nM and the “fold-selectivity (Cbl-b over C-cbl)” value is reported as 4.0x. The IC50 at c-Cbl was 60 nM.

On c-Cbl (residues 47-435), `CO[C@H]1C[C@](c2cc(OC3CCCC3)cc(N3Cc4c(cc(CNC5(C)CCC5)cc4C(F)(F)F)C3=O)c2)(c2nncn2C)C1` [Compound 212, 2-(3-(cyclopentyloxy)-5-((1r,3r)-3-methoxy-1-(4-methyl-4H-1,2,4-triazol-3-yl)cyclobutyl)phenyl)-6-(((1-methylcyclobutyl)amino)methyl)-4-(trifluoromethyl)isoindolin-1-one] showed a Kd of 530 nM. In assay [1], this molecule had a Fold of selectivity of 4.8× and a Kd of 110 nM. Moreover, on Cbl-b, the IC50 is 150 nM and the “fold-selectivity (Cbl-b over C-cbl)” value was 2.6x. On c-Cbl, this molecule yielded an IC50 of 390 nM.

In the case of `C=C[C@@H](C)Oc1cc(N2Cc3c(cc(CNC4(C)CCC4)cc3C(F)(F)F)C2=O)cc([C@]2(c3nncn3C)C[C@@H](OC)C2)c1` [Compound 213, 2-(3-((R)-but-3-en-2-yloxy)-5-((1s,3S)-3-methoxy-1-(4-methyl-4H-1,2,4-triazol-3-yl)cyclobutyl)phenyl)-6-(((1-methylcyclobutyl)amino)methyl)-4-(trifluoromethyl)isoindolin-1-one], the equilibrium dissociation constant (Kd) was 300 nM at c-Cbl (residues 47-435) and 160 nM in assay [1]. The molecule further returned a Fold of selectivity in assay [1] of 1.8×. Also, the 50% inhibitory concentration (IC50) is 240 nM at Cbl-b and 440 nM against c-Cbl. Besides, on Cbl-b, the “fold-selectivity (Cbl-b over C-cbl)” value came to 1.9x.

With `CO[C@H]1C[C@](c2cc(NC3CC3)cc(N3Cc4c(cc(CNC5(C)CCC5)cc4C(F)(F)F)C3=O)c2)(c2nncn2C)C1` [Compound 214, 2-(3-(cyclopropylamino)-5-((1r,3r)-3-methoxy-1-(4-methyl-4H-1,2,4-triazol-3-yl)cyclobutyl)phenyl)-6-(((1-methylcyclobutyl)amino)methyl)-4-(trifluoromethyl)isoindolin-1-one], the Kd at c-Cbl (residues 47-435) was 4.2 nM; in assay [1] it was 0.9 nM. Further, the Fold of selectivity in assay [1] was found to be 4.7×. Moreover, the IC50 worked out at 9.3 nM against Cbl-b and 9 nM at c-Cbl. Besides, on Cbl-b, the “fold-selectivity (Cbl-b over C-cbl)” value was 0.97x.

Consider `CO[C@H]1C[C@](c2cc(NC(C)C)cc(N3Cc4c(cc(CNC5(C)CCC5)cc4C(F)(F)F)C3=O)c2)(c2nncn2C)C1` [Compound 215, 2-(3-(isopropylamino)-5-((1r,3r)-3-methoxy-1-(4-methyl-4H-1,2,4-triazol-3-yl)cyclobutyl)phenyl)-6-(((1-methylcyclobutyl)amino)methyl)-4-(trifluoromethyl)isoindolin-1-one], for which the Kd is 7 nM on c-Cbl (residues 47-435) and 1.7 nM in assay [1]. The molecule also had a Fold of selectivity in assay [1] of 4.1×. Also, the IC50 is 9.4 nM against Cbl-b and 12 nM against c-Cbl. In addition, the “fold-selectivity (Cbl-b over C-cbl)” value on Cbl-b was determined as 1.3x.

As for `CO[C@H]1C[C@](c2cc(NCCC#N)cc(N3Cc4c(cc(CNC5(C)CCC5)cc4C(F)(F)F)C3=O)c2)(c2nncn2C)C1` [Compound 216, 3-((3-((1r,3r)-3-methoxy-1-(4-methyl-4H-1,2,4-triazol-3-yl)cyclobutyl)-5-(6-(((1-methylcyclobutyl)amino)methyl)-1-oxo-4-(trifluoromethyl)isoindolin-2-yl)phenyl)amino)propanenitrile], the figures for the Kd (on c-Cbl (residues 47-435); in assay [1]) were 51 nM and 4.7 nM, respectively. In addition, in assay [1], the Fold of selectivity is on record as 11×. The results for the IC50 against Cbl-b and against c-Cbl were 14 nM and 61 nM, respectively. The “fold-selectivity (Cbl-b over C-cbl)” value at Cbl-b is 4.2x.

`CO[C@H]1C[C@@](c2cc(NC3CCC3)cc(N3Cc4c(cc(CNC5(C)CCC5)cc4C(F)(F)F)C3=O)c2)(c2nncn2C)C1` [Compound 217, 2-(3-(cyclobutylamino)-5-((1s,3s)-3-methoxy-1-(4-methyl-4H-1,2,4-triazol-3-yl)cyclobutyl)phenyl)-6-(((1-methylcyclobutyl)amino)methyl)-4-(trifluoromethyl)isoindolin-1-one] showed a Kd on c-Cbl (residues 47-435) of 91 nM. In assay [1], this molecule came in with a Fold of selectivity of 13× and a Kd of 7.5 nM. At Cbl-b, the 50% inhibitory concentration (IC50) turned out to be 18 nM and the “fold-selectivity (Cbl-b over C-cbl)” value is given as 5.5x. Besides, the IC50 against c-Cbl was 97 nM.

`CO[C@H]1C[C@@](c2cc(NC3CCCC3)cc(N3Cc4c(cc(CNC5(C)CCC5)cc4C(F)(F)F)C3=O)c2)(c2nncn2C)C1` [Compound 218, 2-(3-(cyclopentylamino)-5-((1s,3s)-3-methoxy-1-(4-methyl-4H-1,2,4-triazol-3-yl)cyclobutyl)phenyl)-6-(((1-methylcyclobutyl)amino)methyl)-4-(trifluoromethyl)isoindolin-1-one] yielded a Kd on c-Cbl (residues 47-435) of 770 nM. Also, in assay [1], the Fold of selectivity was determined as 10× and the affinity, expressed as Kd, was 77 nM. Further, on Cbl-b, it took 81 nM to reach half-maximal inhibition (IC50) and the “fold-selectivity (Cbl-b over C-cbl)” value came out at 10x. Moreover, the IC50 on c-Cbl was found to be 810 nM.

For `CC(C)O[C@H]1C[C@@](c2cccc(N3Cc4c(cc(CNC5(C)CCC5)cc4C(F)(F)F)C3=O)c2)(c2nncn2C)C1` [Compound 222, 2-(3-((1s,3s)-3-isopropoxy-1-(4-methyl-4H-1,2,4-triazol-3-yl)cyclobutyl)phenyl)-6-(((1-methylcyclobutyl)amino)methyl)-4-(trifluoromethyl)isoindolin-1-one], on c-Cbl (residues 47-435), the Kd was 200 nM. In assay [1], this molecule yielded a Fold of selectivity of 13× and a Kd of 14 nM. Besides, at Cbl-b, it took 64 nM to reach half-maximal inhibition (IC50) and the “fold-selectivity (Cbl-b over C-cbl)” value stood at 4.2x. The molecule also returned a half-maximal inhibitory concentration (IC50) on c-Cbl of 270 nM.

For the molecule `CO[C@H]1C[C@@](c2cc(NC(C)C)cc(N3Cc4c(cc(CNC5(C)CCC5)cc4C(F)(F)F)C3=O)c2)(c2nncn2C)C1` [Compound 223, 2-(3-(isopropylamino)-5-((1s,3s)-3-methoxy-1-(4-methyl-4H-1,2,4-triazol-3-yl)cyclobutyl)phenyl)-6-(((1-methylcyclobutyl)amino)methyl)-4-(trifluoromethyl)isoindolin-1-one], the Kd at c-Cbl (residues 47-435) worked out at 22 nM. Moreover, in assay [1], the Fold of selectivity was 7.5× and the Kd was 2.9 nM. In addition, on Cbl-b, the IC50 was 15 nM and the “fold-selectivity (Cbl-b over C-cbl)” value is on record as 1.4x. For the same molecule, the IC50 against c-Cbl worked out at 21 nM.

Turning to `CO[C@H]1C[C@@](c2cc(NCCC#N)cc(N3Cc4c(cc(CNC5(C)CCC5)cc4C(F)(F)F)C3=O)c2)(c2nncn2C)C1` [Compound 224], on c-Cbl (residues 47-435), the Kd came out at 100 nM. Also, in assay [1], the Fold of selectivity stood at 10× and binding was characterised by a dissociation constant (Kd) of 9.5 nM. In addition, at Cbl-b, the IC50 was 20 nM and the “fold-selectivity (Cbl-b over C-cbl)” value is 5.0x. Besides, half-maximal inhibition against c-Cbl (IC50) required 100 nM.

Consider `CO[C@H]1C[C@](c2cc(C3CC3)cc(N3Cc4c(cc(CNC5(C)CCC5)cc4C(F)(F)F)C3=O)c2)(c2nncn2C)C1` [Compound 226, 2-(3-cyclopropyl-5-((1r,3r)-3-methoxy-1-(4-methyl-4H-1,2,4-triazol-3-yl)cyclobutyl)phenyl)-6-(((1-methylcyclobutyl)amino)methyl)-4-(trifluoromethyl)isoindolin-1-one], for which the Kd on c-Cbl (residues 47-435) amounted to 4.2 nM. Further, in assay [1], the Fold of selectivity came to 3.2× and the Kd was determined as 1.3 nM. Besides, on Cbl-b, half-maximal inhibition (IC50) required 11 nM and the “fold-selectivity (Cbl-b over C-cbl)” value was found to be 0.99x. Further, half-maximal inhibition against c-Cbl (IC50) was put at 10 nM.

`CCNc1cc(N2Cc3c(cc(CNC4(C)CCC4)cc3C(F)(F)F)C2=O)cc([C@]2(c3nncn3C)C[C@@H](OC)C2)c1` [Compound 227, 2-(3-(ethylamino)-5-((1s,3s)-3-methoxy-1-(4-methyl-4H-1,2,4-triazol-3-yl)cyclobutyl)phenyl)-6-(((1-methylcyclobutyl)amino)methyl)-4-(trifluoromethyl)isoindolin-1-one] yielded a Kd at c-Cbl (residues 47-435) of 11 nM. Also, in assay [1], the Fold of selectivity is 6.5× and binding was characterised by a dissociation constant (Kd) of 1.7 nM. Besides, at Cbl-b, half-maximal inhibition (IC50) was put at 10 nM and the “fold-selectivity (Cbl-b over C-cbl)” value was 1.6x. Moreover, on c-Cbl, the IC50 came out at 16 nM.

With `COC1CC2(C1)CC(c1cccc(N3Cc4c(cc(CNC5(C)CCC5)cc4C(F)(F)F)C3=O)c1)(c1nncn1C)C2` (stereo not drawn) [Compound 229, 2-(3-(6-methoxy-2-(4-methyl-4H-1,2,4-triazol-3-yl)spiro[3.3]heptan-2-yl)phenyl)-6-(((1-methylcyclobutyl)amino)methyl)-4-(trifluoromethyl)isoindolin-1-one], binding on c-Cbl (residues 47-435) was put at a Kd of 760 nM. In assay [1], this molecule had a Fold of selectivity of 7.0× and a Kd of 110 nM. Besides, at Cbl-b, inhibition was half-maximal at 230 nM (IC50) and the “fold-selectivity (Cbl-b over C-cbl)” value was determined as 5.9x. It took 1400 nM to reach half-maximal inhibition at c-Cbl (IC50).
